This is an account of results in patent publication US8557845B2, “Substituted pyrrolo-pyrazole derivatives as kinase inhibitors” (Nerviano Medical Sciences S.R.L., priority 2002, dated 2013).

In general, IC50 refers to the concentration needed to halve the response being measured. Read a high IC50 as a need for much substance.

The target of this assay is Cdk2/Cyclin A (Homo sapiens, UniProt P24941). In words: Inhibition assay of Cdk2/Cyclin A activity (SPA, IC50). The format is biochemical. To be noted: tested against Cdk2/Cyclin A. The method, then: The inhibiting activity of putative Cdk/Cyclin inhibitors and the potency of selected compounds was determined through a method of assay based on the use of the SPA technology (Amersham Pharmacia Biotech).
The assay consists of the transfer of radioactivity labelled phosphate moiety by the kinase to a biotinylated substrate. The resulting 33P-labelled biotinylated product is allowed to bind to streptavidin-coated SPA beads (biotin capacity 130 pmol/mg), and light emitted was measured in a scintillation counter.
Inhibition Assay of Cdk2/Cyclin A Activity
4 μM in house biotinylated histone H1 (Sigma #H-5505) substrate, 10 μM ATP (0.1 microCi P^33γ-ATP), 4.2 ng Cdk2/Cyclin A complex, inhibitor in a final volume of 30 μl buffer (TRIS HCl 10 mM pH 7.5, MgCl2 10 mM, DTT 7.5 mM+0.2 mg/ml BSA) were added to each well of a 96 U bottom. After 30 min at r.t. incubation, reaction was stopped by 100 μl PBS+32 mM EDTA+0.1% Triton X-100+500 μM ATP, containing 1 mg SPA beads. Then a volume of 110 μl is transferred to Optiplate.
After 20 min. incubation for substrate capture, 100 μl 5M CsCl were added to allow statification of beads to the top of the plate and let stand 4 hours before radioactivity counting in the Top-Count instrument.
inhibitors were tested at different concentrations ranging from 0.0015 to 10 μM. Experimental data were analyzed by the computer program GraphPad Prizm using the four parameter logistic equation: y=bottom+(top−bottom)/(1+10^((log IC50−x)*slope)) where x is the logarithm of the inhibitor concentration, y is the response; y starts at bottom and goes to top with a sigmoid shape.

`CC(C)(C)C(=O)N1Cc2c(NC(=O)c3ccc(F)cc3)n[nH]c2C1(C)C` [Compound 1, N-[5-(2,2-dimethylpropanoyl)-6,6-dimethyl-1,4,5,6-tetrahydropyrrolo[3,4-c]pyrazol-3-yl]-4-fluorobenzamide]: the IC50 came out at 30 nM. Compound `CC(C)(C)C(=O)N1Cc2c(NC(=O)c3ccc(F)cc3)n[nH]c2C12CC2` [Compound 2, N-[5-(2,2-dimethylpropanoyl)-1,4,5,6-tetrahydropyrrolo[3,4-c]pyrazol-6-spirocyclopropan-3-yl]-4-fluorobenzamide] showed a concentration for half-maximal inhibition (IC50) of 25 nM. The figure for `CC(=O)N1Cc2c(NC(=O)c3cccc(Br)c3)n[nH]c2C1(C)C` [Reference Compound, N-[5-acetyl-6,6-dimethyl-4,6-dihydropyrrolo[3,4-c]pyrazol-3-yl]-(3-bromo)benzamide, reference compound] is 1700 nM.
